According to PubChem BioAssay (NCI):
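In this assay, cells in 96-well plates receive the compound at five concentrations for 48 hours. Endpoints are linearly interpolated between the surrounding concentrations. TGI denotes the concentration required for complete inhibition of growth.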

Assays:
Assay in all cases: DTP human tumour cell line panel, 48 h
786-0 renal = tested on: 786-0 renal
A498 renal = tested on: A498 renal
A549 NSCLC = tested on: A549 NSCLC
ACHN renal = tested on: ACHN renal
CAKI-1 renal = tested on: CAKI-1 renal
CCRF-CEM leukemia = tested on: CCRF-CEM leukemia
COLO 205 colon = tested on: COLO 205 colon
DLD-1 colon = tested on: DLD-1 colon
DMS 114 small cell lung = tested on: DMS 114 small cell lung
DMS 273 small cell lung = tested on: DMS 273 small cell lung
EKVX NSCLC = tested on: EKVX NSCLC
HCC-2998 colon = tested on: HCC-2998 colon
HCT-116 colon = tested on: HCT-116 colon
HCT-15 colon = tested on: HCT-15 colon
HOP-62 NSCLC = tested on: HOP-62 NSCLC
HOP-92 NSCLC = tested on: HOP-92 NSCLC
HT29 colon = tested on: HT29 colon
IGROV1 ovarian = tested on: IGROV1 ovarian
K-562 leukemia = tested on: K-562 leukemia
KM12 colon = tested on: KM12 colon
KM20L2 colon = tested on: KM20L2 colon
LOX IMVI melanoma = tested on: LOX IMVI melanoma
LXFL 529 NSCLC = tested on: LXFL 529 NSCLC
M14 melanoma = tested on: M14 melanoma
M19-MEL melanoma = tested on: M19-MEL melanoma
MALME-3M melanoma = tested on: MALME-3M melanoma
MOLT-4 leukemia = tested on: MOLT-4 leukemia
NCI-H226 lung = tested on: NCI-H226 lung
NCI-H23 lung = tested on: NCI-H23 lung
NCI-H460 lung = tested on: NCI-H460 lung
NCI-H522 lung = tested on: NCI-H522 lung
OVCAR-3 ovarian = tested on: OVCAR-3 ovarian
OVCAR-4 ovarian = tested on: OVCAR-4 ovarian
OVCAR-5 ovarian = tested on: OVCAR-5 ovarian
OVCAR-8 ovarian = tested on: OVCAR-8 ovarian
RPMI-8226 leukemia = tested on: RPMI-8226 leukemia
RXF 393 renal = tested on: RXF 393 renal
RXF-631 renal = tested on: RXF-631 renal
SF-268 CNS = tested on: SF-268 CNS
SF-295 CNS = tested on: SF-295 CNS
SF-539 CNS = tested on: SF-539 CNS
SK-MEL-2 melanoma = tested on: SK-MEL-2 melanoma
SK-MEL-28 melanoma = tested on: SK-MEL-28 melanoma
SK-MEL-5 melanoma = tested on: SK-MEL-5 melanoma
SK-OV-3 ovarian = tested on: SK-OV-3 ovarian
SN12C renal = tested on: SN12C renal
SNB-19 CNS = tested on: SNB-19 CNS
SNB-75 CNS = tested on: SNB-75 CNS
SNB-78 CNS = tested on: SNB-78 CNS
SW-620 colon = tested on: SW-620 colon
TK-10 renal = tested on: TK-10 renal
U251 CNS = tested on: U251 CNS
UACC-257 melanoma = tested on: UACC-257 melanoma
UACC-62 melanoma = tested on: UACC-62 melanoma
UO-31 renal = tested on: UO-31 renal
XF 498 CNS = tested on: XF 498 CNS
HL-60(TB) leukemia = tested on: HL-60(TB) leukemia
HOP-18 NSCLC = tested on: HOP-18 NSCLC

Measured: TGI

CC(=O)NC(CCCNC(=O)N(C)N=O)C(=O)NCc1ccccc1 (stereo not drawn)
not listed: HL-60(TB) leukemia | HOP-18 NSCLC
> 100 µM: all other assays above

O=C1/C(=C/c2ccccc2Cl)COc2ccc(Br)cc21
80.1 µM: NCI-H522 lung
85 µM: SK-OV-3 ovarian
31.7 µM: K-562 leukemia
not listed: CAKI-1 renal | HCT-15 colon | M14 melanoma | NCI-H226 lung | OVCAR-4 ovarian | RPMI-8226 leukemia | RXF-631 renal | SK-MEL-5 melanoma | SN12C renal | SNB-19 CNS | UACC-62 melanoma
> 100 µM: all other assays above
